Numbered stars: 1 amine (or outer) side, 2 acyl side, 3 side chain; on linkers, the order of the positions; unused ones are H or OH. Bridge positions count the residues as written; N and C are the ends. Square brackets hold non-standard residues; d marks the D form. Side chains are listed from the residue outwards. Peptide text beside a SMILES is read from it. * marks the point of attachment. NH(1-deoxy-D-glucityl) = OC[C@@H](O)[C@@H](O)[C@H](O)[C@@H](O)CN*; Ala(imidazo(1,2-a)pyr3yl) = N[C@@H](Cc1cnc2ccccn12)C(=O)O; Trp(1-CH2COOH) = N[C@@H](Cc1cn(CC(=O)O)c2ccccc12)C(=O)O; CH2CON(CH2CH2)2NCH2COOH = O=C(O)CN1CCN(C(=O)C*)CC1; NMePhe(4-COOH) = CN[C@@H](Cc1ccc(C(=O)O)cc1)C(=O)O; X1 = O=C([C@H](Cc1cccc(C(=O)[*:3])c1)N[*:1])[*:2]; Nle(6-morpholino) = N[C@@H](CCCCN1CCOCC1)C(=O)O; Phe(3-COOH) = N[C@@H](Cc1cccc(C(=O)O)c1)C(=O)O; Trp(7-aza) = N[C@@H](Cc1c[nH]c2ncccc12)C(=O)O; NH(CH2CH2O)8Me = COCCOCCOCCOCCOCCOCCOCCOCCN*; NMePhe(3-Cl) = CN[C@@H](Cc1cccc(Cl)c1)C(=O)O; Piperazinyl(4-CH2COOH) = O=C(O)CN1CCN(*)CC1; 3Pal(6-NH2) = Nc1ccc(C[C@H](N)C(=O)O)cn1; NMeW = CN[C@@H](Cc1c[nH]c2ccccc12)C(=O)O; Lys(N3) = [N-]=[N+]=NCCCC[C@H](N)C(=O)O; NMeY = CN[C@@H](Cc1ccc(O)cc1)C(=O)O; Nva(3-Et) = CCC(CC)[C@H](N)C(=O)O; NMeF = CN[C@@H](Cc1ccccc1)C(=O)O; 4Pal = N[C@@H](Cc1ccncc1)C(=O)O; PEG4 = NCCOCCOCCOCCOCCC(=O)O; Carboxymethyl = O=C(O)C*; CO = O=C([*:1])[*:2]
Assays:
[1] = biological target: T1, human transferrin receptor (hTfR) (Homo sapiens, UniProt P02786); experiment: SPR measurement under pH 6.0 conditions (Biacore T200, NTA chip, immobilized hTfR); format: binding; conditions: read-out: hTfR SPR pH6.0 KD
[2] = biological target: T1, human transferrin receptor (hTfR); experiment: SPR measurement under pH 7.4 conditions (Biacore T200, CM3 chip, hTfR captured by His Tag antibody); format: binding; conditions: read-out: hTfR SPR pH7.4 KD
[3] = SPR, pH 6.0, peptide with the linker named in the table
[4] = SPR, pH 7.4, peptide with the linker named in the table

T1 sequence (P02786 whole entry): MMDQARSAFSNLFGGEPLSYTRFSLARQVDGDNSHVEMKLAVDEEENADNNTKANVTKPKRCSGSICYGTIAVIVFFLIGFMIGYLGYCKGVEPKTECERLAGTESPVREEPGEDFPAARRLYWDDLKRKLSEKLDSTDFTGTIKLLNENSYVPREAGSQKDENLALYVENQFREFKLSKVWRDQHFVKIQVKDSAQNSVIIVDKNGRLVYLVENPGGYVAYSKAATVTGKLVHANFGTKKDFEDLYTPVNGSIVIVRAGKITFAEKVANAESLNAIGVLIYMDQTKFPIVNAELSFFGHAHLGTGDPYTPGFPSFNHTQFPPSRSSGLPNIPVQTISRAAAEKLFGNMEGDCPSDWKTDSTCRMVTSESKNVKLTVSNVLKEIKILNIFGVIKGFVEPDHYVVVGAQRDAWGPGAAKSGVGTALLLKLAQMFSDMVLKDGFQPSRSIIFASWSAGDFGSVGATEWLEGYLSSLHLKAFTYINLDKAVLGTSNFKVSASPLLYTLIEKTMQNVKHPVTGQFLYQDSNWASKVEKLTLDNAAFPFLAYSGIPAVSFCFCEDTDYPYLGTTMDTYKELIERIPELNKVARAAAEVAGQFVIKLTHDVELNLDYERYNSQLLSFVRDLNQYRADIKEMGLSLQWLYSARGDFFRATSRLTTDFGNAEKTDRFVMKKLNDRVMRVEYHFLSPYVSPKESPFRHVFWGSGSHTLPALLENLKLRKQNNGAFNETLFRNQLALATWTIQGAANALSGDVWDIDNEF

SMILES	Kd ([1]; pH 6.0, single-cycle kinetics) [nM]	Kd ([2]; pH 7.4, single-cycle kinetics) [nM]	further results
CC[C@H](C)[C@@H]1NC(=O)[C@H](Cc2ccc(OC)cc2)NC(=O)[C@H](Cc2ccc(N)nc2)NC(=O)[C@H](CC(N)=O)NC(=O)[C@H](Cc2cn(CC(=O)O)c3ccccc23)NC(=O)[C@H](C(C)C)NC(=O)[C@H](Cc2cccc(Cl)c2)N(C)C(=O)[C@H](C(C)C)NC(=O)[C@H](C)NC(=O)CSC[C@@H](C(=O)NCCOCCOCCOCCOCCC(N)=O)NC(=O)[C@H](Cc2ccc(O)cc2)N(C)C(=O)[C@H](Cc2ccncc2)NC(=O)[C@H](CCCCNC(=O)N2CCN(CC(=O)O)CC2)NC(=O)[C@H](CCCCN2CCOCC2)NC(=O)[C@H]([C@@H](C)CC)NC1=O [compound 8] ({CH2CO}-AV[NMePhe(3-Cl)]V[Trp(1-CH2COOH)]N[3Pal(6-NH2)]Y(Me)II[Nle(6-morpholino)]K([CO-Piperazinyl(4-CH2COOH)])[4Pal][NMeY]C[PEG4]-NH2; thioether N-15)	113	10.7	–
CC[C@H](C)[C@@H]1NC(=O)[C@H](Cc2ccc(OCC(=O)O)cc2)NC(=O)[C@H](Cc2ccc(O)cc2)NC(=O)[C@H](CC(N)=O)NC(=O)[C@H](Cc2c[nH]c3ncccc23)NC(=O)[C@H](C(C)C)NC(=O)[C@H](Cc2cccc(Cl)c2)N(C)C(=O)[C@H](C(C)C)NC(=O)[C@H](C)NC(=O)CSC[C@@H](C(=O)NCCOCCOCCOCCOCCC(N)=O)NC(=O)[C@H](Cc2ccc(O)cc2)N(C)C(=O)[C@H](Cc2cccc(C(=O)NCCOCCOCCOCCOCCOCCOCCOCCOCCC(=O)O)c2)NC(=O)[C@H](CCCNC(=N)N)NC(=O)[C@H](CCC(N)=O)NC(=O)[C@H]([C@@H](C)CC)NC1=O [compound 140]	–	–	Kd [1, 3]: 22.1 nM; Kd [2, 4]: 5.63 nM
CC[C@H](C)[C@@H]1NC(=O)[C@H](Cc2ccc(OC)cc2)NC(=O)[C@H](Cc2ccc(N)nc2)NC(=O)[C@H](CC(N)=O)NC(=O)[C@H](Cc2cnc3ccccn23)NC(=O)[C@H](C(C)C)NC(=O)[C@H](Cc2ccccc2)N(C)C(=O)[C@H](C(C)C)NC(=O)[C@H](C)NC(=O)CSC[C@@H](C(=O)NCC(=O)N[C@@H](CCCCN=[N+]=[N-])C(N)=O)NC(=O)[C@H](Cc2ccc(O)cc2)N(C)C(=O)[C@H](Cc2ccncc2)NC(=O)[C@H](CCCNC(=N)N)NC(=O)[C@H](CCCNC(=N)N)NC(=O)[C@H]([C@@H](C)CC)NC1=O [compound 190] ({CH2CO}-AV[NMeF]V[Ala(imidazo(1,2-a)pyr3yl)]N[3Pal(6-NH2)]Y(Me)IIRR[4Pal][NMeY]CG[Lys(N3)]-NH2; thioether N-15)	–	–	Kd ([1]; SPR, pH 6.0, Table 1-3-2-2): 177 nM; Kd ([2]; SPR, pH 7.4, Table 1-3-2-2): 57.1 nM
CCC(CC)[C@@H]1NC(=O)[C@H](Cc2ccc(OCC(=O)O)cc2)NC(=O)[C@H](Cc2ccc(O)cc2)NC(=O)[C@H](CC(N)=O)NC(=O)[C@H](Cc2c[nH]c3ncccc23)NC(=O)[C@H](C(C)C)NC(=O)[C@H](Cc2cccc(Cl)c2)N(C)C(=O)[C@H](C(C)C)NC(=O)[C@H](C)NC(=O)CSC[C@@H](C(=O)NCCOCCOCCOCCOCCC(N)=O)NC(=O)[C@H](Cc2ccc(O)cc2)N(C)C(=O)[C@H](Cc2cccc(C(=O)O)c2)NC(=O)[C@H](CCCNC(=N)N)NC(=O)[C@H](CCC(=O)NCCOCCOCCOCCOCCOCCOCCOCCOC)NC(=O)[C@H]([C@@H](C)CC)NC1=O [compound 106] ({CH2CO}-AV[NMePhe(3-Cl)]V[Trp(7-aza)]NYY(Carboxymethyl)[Nva(3-Et)]IE(NH(CH2CH2O)8Me)R[Phe(3-COOH)][NMeY]C[PEG4]-NH2; thioether N-15)	–	–	Kd [1, 3]: 90.1 nM; Kd [2, 4]: 26 nM
CC[C@H](C)[C@@H]1NC(=O)[C@H](Cc2ccc(OCC(=O)N3CCN(CC(=O)O)CC3)cc2)NC(=O)[C@H](Cc2ccc(N)nc2)NC(=O)[C@H](CC(N)=O)NC(=O)[C@H](Cc2cn(CC(=O)O)c3ccccc23)NC(=O)[C@H](C(C)C)NC(=O)[C@H](Cc2cccc(Cl)c2)N(C)C(=O)[C@H](C(C)C)NC(=O)[C@H](C)NC(=O)CSC[C@@H](C(=O)NCCOCCOCCOCCOCCC(N)=O)NC(=O)[C@H](Cc2ccc(C(=O)O)cc2)N(C)C(=O)[C@H](Cc2cccc(C(=O)O)c2)NC(=O)[C@H](CCCCN2CCOCC2)NC(=O)[C@H](CCC(N)=O)NC(=O)[C@H]([C@@H](C)CC)NC1=O [compound 51] ({CH2CO}-AV[NMePhe(3-Cl)]V[Trp(1-CH2COOH)]N[3Pal(6-NH2)]Y(CH2CON(CH2CH2)2NCH2COOH)IIQ[Nle(6-morpholino)][Phe(3-COOH)][NMePhe(4-COOH)]C[PEG4]-NH2; thioether N-15)	692	1560	–
CCC(CC)[C@@H]1NC(=O)[C@H](Cc2ccc(O)cc2)NC(=O)[C@H](Cc2ccc(O)cc2)NC(=O)[C@H](CC(N)=O)NC(=O)[C@H](Cc2c[nH]c3ccccc23)N(C)C(=O)[C@H](C(C)C)NC(=O)[C@H](Cc2ccccc2)N(C)C(=O)[C@H](C(C)C)NC(=O)[C@H](C)NC(=O)CSC[C@@H](C(=O)NCC(=O)N[C@@H](CCCCN=[N+]=[N-])C(N)=O)NC(=O)[C@H](Cc2ccc(C(=O)O)cc2)N(C)C(=O)[C@H](Cc2cccc(C(=O)NCCOCCOCCOCCOCCC(=O)O)c2)NC(=O)[C@H](CCCNC(=N)N)NC(=O)[C@H](CCCCN)NC(=O)[C@H]([C@@H](C)CC)NC1=O [compound 194] ({CH2CO}-AV[NMeF]V[NMeW]NYY[Nva(3-Et)]IKR[X1](PEG4)[NMePhe(4-COOH)]CG[Lys(N3)]-NH2; thioether N-15)	–	–	Kd ([1]; SPR, pH 6.0, Table 1-3-2-2): 14.9 nM; Kd ([2]; SPR, pH 7.4, Table 1-3-2-2): 4.62 nM
CC[C@H](C)[C@@H]1NC(=O)[C@H](Cc2ccc(OC)cc2)NC(=O)[C@H](Cc2ccc(O)cc2)NC(=O)[C@H](CC(N)=O)NC(=O)[C@H](Cc2c[nH]c3ccccc23)N(C)C(=O)[C@H](C(C)C)NC(=O)[C@H](Cc2cccc(Cl)c2)N(C)C(=O)[C@H](C(C)C)NC(=O)[C@H](C)NC(=O)CSC[C@@H](C(=O)NCCOCCOCCOCCOCCC(N)=O)NC(=O)[C@H](Cc2ccc(C(=O)NCCOCCOCCOCCOCCC(=O)O)cc2)N(C)C(=O)[C@H](Cc2cccc(C(=O)O)c2)NC(=O)[C@H](CCCNC(=N)N)NC(=O)[C@H](CCCCN)NC(=O)[C@H]([C@@H](C)CC)NC1=O [compound 180] ({CH2CO}-AV[NMePhe(3-Cl)]V[NMeW]NYY(Me)IIKR[Phe(3-COOH)][NMePhe(4-COOH)](PEG4)C[PEG4]-NH2; thioether N-15)	0.957	0.229	–
CC[C@H](C)[C@@H]1NC(=O)[C@H](Cc2ccc(OCC(=O)O)cc2)NC(=O)[C@H](Cc2ccc(N)nc2)NC(=O)[C@H](CC(N)=O)NC(=O)[C@H](Cc2c[nH]c3ncccc23)NC(=O)[C@H](C(C)C)NC(=O)[C@H](Cc2cccc(Cl)c2)N(C)C(=O)[C@H](C(C)C)NC(=O)[C@H](C)NC(=O)CSC[C@@H](C(=O)NCCOCCOCCOCCOCCC(N)=O)NC(=O)[C@H](Cc2ccc(O)cc2)N(C)C(=O)[C@H](Cc2ccncc2)NC(=O)[C@H](CCCNC(=N)N)NC(=O)[C@H](CCCCNC(=O)N2CCN(CC(=O)O)CC2)NC(=O)[C@H]([C@@H](C)CC)NC1=O [compound 14] ({CH2CO}-AV[NMePhe(3-Cl)]V[Trp(7-aza)]N[3Pal(6-NH2)]Y(Carboxymethyl)IIK([CO-Piperazinyl(4-CH2COOH)])R[4Pal][NMeY]C[PEG4]-NH2; thioether N-15)	108	30.8	–
CCC(CC)[C@@H]1NC(=O)[C@H](Cc2ccc(OCC(=O)N3CCN(CC(=O)O)CC3)cc2)NC(=O)[C@H](Cc2ccc(O)cc2)NC(=O)[C@H](CC(N)=O)NC(=O)[C@H](Cc2cn(CC(=O)O)c3ccccc23)NC(=O)[C@H](C(C)C)NC(=O)[C@H](Cc2cccc(Cl)c2)N(C)C(=O)[C@H](C(C)C)NC(=O)[C@H](C)NC(=O)CSC[C@@H](C(=O)NCCOCCOCCOCCOCCC(N)=O)NC(=O)[C@H](Cc2ccc(C(=O)O)cc2)N(C)C(=O)[C@H](Cc2cccc(C(=O)O)c2)NC(=O)[C@H](CCCCN2CCOCC2)NC(=O)[C@H](CCCCN2CCOCC2)NC(=O)[C@H]([C@@H](C)CC)NC1=O [compound 55] ({CH2CO}-AV[NMePhe(3-Cl)]V[Trp(1-CH2COOH)]NYY(CH2CON(CH2CH2)2NCH2COOH)[Nva(3-Et)]I[Nle(6-morpholino)][Nle(6-morpholino)][Phe(3-COOH)][NMePhe(4-COOH)]C[PEG4]-NH2; thioether N-15)	38.5	26.4	–

Now from value to compound, other results behind:

Kd ([1]; pH 6.0, single-cycle kinetics) [nM]	Kd ([2]; pH 7.4, single-cycle kinetics) [nM]	SMILES	further results
41.3	4.08	CC[C@H](C)[C@@H]1NC(=O)[C@H](Cc2ccc(OC)cc2)NC(=O)[C@H](Cc2ccc(N)nc2)NC(=O)[C@H](CC(N)=O)NC(=O)[C@H](Cc2c[nH]c3ncccc23)NC(=O)[C@H](C(C)C)NC(=O)[C@H](Cc2cccc(Cl)c2)N(C)C(=O)[C@H](C(C)C)NC(=O)[C@H](C)NC(=O)CSC[C@@H](C(=O)NCCOCCOCCOCCOCCC(N)=O)NC(=O)[C@H](Cc2ccc(O)cc2)N(C)C(=O)[C@H](Cc2ccncc2)NC(=O)[C@H](CCCCN2CCOCC2)NC(=O)[C@H](CCC(=O)NC[C@H](O)[C@@H](O)[C@H](O)[C@H](O)CO)NC(=O)[C@H]([C@@H](C)CC)NC1=O [compound 20] ({CH2CO}-AV[NMePhe(3-Cl)]V[Trp(7-aza)]N[3Pal(6-NH2)]Y(Me)IIE(NH(1-deoxy-D-glucityl))[Nle(6-morpholino)][4Pal][NMeY]C[PEG4]-NH2; thioether N-15)	–
5.39	1.34	CC[C@H](C)[C@@H]1NC(=O)[C@H](Cc2ccc(OC)cc2)NC(=O)[C@H](Cc2ccc(N)nc2)NC(=O)[C@H](CC(N)=O)NC(=O)[C@H](Cc2c[nH]c3ccccc23)N(C)C(=O)[C@H](C(C)C)NC(=O)[C@H](Cc2cccc(Cl)c2)N(C)C(=O)[C@H](C(C)C)NC(=O)[C@H](C)NC(=O)CSC[C@@H](C(=O)NCCOCCOCCOCCOCCC(N)=O)NC(=O)[C@H](Cc2ccc(O)cc2)N(C)C(=O)[C@H](Cc2ccncc2)NC(=O)[C@H](CCCNC(=N)N)NC(=O)[C@H](CCCCN)NC(=O)[C@H]([C@@H](C)CC)NC1=O [compound 58] ({CH2CO}-AV[NMePhe(3-Cl)]V[NMeW]N[3Pal(6-NH2)]Y(Me)IIKR[4Pal][NMeY]C[PEG4]-NH2; thioether N-15)	–

Source: patent EP4667483A1, “HUMAN TRANSFERRIN RECEPTOR-BINDING PEPTIDE” (JCR Pharmaceuticals Co., Ltd., priority 2023, dated 2024)
